Here are results for ten compounds from ChEMBL document CHEMBL1201862, “PubChem BioAssay data set” (2004).

Test systems include TK-10; KM12; K562; HOP-62; HCT-15; OVCAR-5; CAKI-1; SK-MEL-5; ACHN; HCT-116; MDA-MB-435; RPMI-8226; 786-0; IGROV-1; NCI-H460; SN12C; A498; MDA-N.
Test in all cases: inhibition of tumour cell growth, NCI panel, 48 h

Molecules are shown by their SMILES.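 96-well plates; 48 h exposure; 5 concentrations. Endpoints by linear interpolation between flanking doses. Not reached: highest tested concentration assigned. GI50 = concentration required for 50% inhibition of growth.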 Activity calls are given as the source filed them. Cut-off read from the data, not from the text of the source: active = GI50 up to about 1.1 µM and inactive = higher.

On to `CCOC(=O)c1c2c(n(-c3ccc(OC)cc3)c1C)C(=O)C(=O)c1ccccc1-2`, for which the GI50 in the test with TK-10 was 1.72 µM (inactive); in the test with KM12, 1.82 µM (inactive); in the test with K562, 0.488 µM (active); with HOP-62 it was 1.78 µM (inactive); with HCT-15, 3.65 µM; with OVCAR-5, 1.88 µM (inactive). The GI50 in the test with CAKI-1 was 1.42 µM (inactive); in the test on SK-MEL-5, 1.06 µM (active); in the test with ACHN, 1.14 µM (inactive); in the test on HCT-116, 1.33 µM (inactive); in the test with MDA-MB-435 it was 0.19 µM (active); with RPMI-8226, 0.647 µM (active). The GI50 is 1.87 µM (inactive) with 786-0, 2.52 µM (inactive) in the test with IGROV-1, 1.43 µM (inactive) with NCI-H460 and 1.58 µM (inactive) in the test with SN12C.
As for `O=C(O)c1ccc(C2SCc3nc4ccccc4n32)cc1` (stereo unspecified), the GI50 is > 100 µM (inactive) with TK-10; > 100 µM (inactive) with KM12; > 100 µM (inactive) in the test on K562; > 100 µM (inactive) in the test on HOP-62; greater than 100 µM in the test with HCT-15; > 100 µM (inactive) in the test with A498. The GI50 in the test on OVCAR-5, in the test with CAKI-1, in the test with SK-MEL-5, in the test on MDA-N, in the test with ACHN and with HCT-116 was > 100 µM (inactive) in each case. Moreover, the GI50 in the test with RPMI-8226, in the test on 786-0, in the test on IGROV-1, in the test with NCI-H460 and with SN12C was > 100 µM (inactive) in each case.
On to `Cc1cc(S(=O)(=O)O)c(NC(=O)c2oc3cc(O)ccc3c(=O)c2C)cc1Cl`, for which the GI50 in the test with TK-10 was > 100 µM (inactive); in the test with KM12, > 100 µM (inactive); with K562, > 100 µM (inactive); with HOP-62 it was > 100 µM (inactive); with HCT-15 it was greater than 100 µM; with OVCAR-5, > 100 µM (inactive). For the same compound, the GI50 with CAKI-1, in the test with SK-MEL-5, in the test with MDA-N, in the test with ACHN, in the test on HCT-116 and in the test on MDA-MB-435 was > 100 µM (inactive) in each case. Besides, the GI50 with RPMI-8226, in the test on 786-0, in the test with IGROV-1, in the test with NCI-H460 and with SN12C was > 100 µM (inactive) throughout.
Turning to `O=c1cc(-c2ccccc2)[nH]c2ccc(S)cc12`, the GI50 in the test with TK-10 was 33.9 µM (inactive); with KM12, 28.8 µM (inactive); with K562, 21.9 µM (inactive); with HOP-62, 70.3 µM (inactive); with HCT-15, 16.8 µM; with OVCAR-5 it was 86.3 µM (inactive). Besides, the GI50 in the test on SK-MEL-5 is 15.5 µM (inactive); in the test on MDA-N, > 10 µM (inactive); in the test on ACHN, 30.2 µM (inactive); with HCT-116, 24.4 µM (inactive); in the test on MDA-MB-435, 21.4 µM (inactive); with RPMI-8226 it was 44.2 µM (inactive). Moreover, the GI50 was 79.8 µM (inactive) in the test on 786-0, 29.8 µM (inactive) in the test with IGROV-1, 31.8 µM (inactive) in the test with NCI-H460 and 18.3 µM (inactive) in the test with SN12C.
As for `CC(C)(C)/C(O)=C\c1nc2cc(F)c(F)cc2[nH]c1=O`, the GI50 in the test on TK-10 was > 100 µM (inactive); in the test with KM12, > 100 µM (inactive); in the test with K562 it was > 100 µM (inactive); in the test on HOP-62, > 100 µM (inactive); in the test on HCT-15, greater than 100 µM; with A498 it was > 100 µM (inactive). Further, the GI50 in the test on CAKI-1, in the test with SK-MEL-5, with ACHN, with HCT-116, in the test on MDA-MB-435 and with 786-0 was > 100 µM (inactive) in each case. Also, the GI50 in the test on IGROV-1 and in the test on NCI-H460 was > 100 µM (inactive) throughout.
On to `Cn1c2ccccc2c(=NNc2ccc(C(=O)O)cc2)c2ccccc21`, for which the GI50 with TK-10 was 21.3 µM (inactive); with KM12 it was 15.7 µM (inactive); in the test on K562 it was 6.79 µM (inactive); in the test on HOP-62, 18.8 µM (inactive); in the test on HCT-15, 18.8 µM; in the test with OVCAR-5 it was 17.8 µM (inactive). The GI50 in the test with CAKI-1 was 21.6 µM (inactive); in the test with SK-MEL-5 it was 17.6 µM (inactive); in the test on MDA-N, 17.7 µM (inactive); with ACHN, 15.3 µM (inactive); with HCT-116, 7.5 µM (inactive); in the test with MDA-MB-435, 19 µM (inactive). Besides, the GI50 in the test on RPMI-8226 was 12.9 µM (inactive); in the test with 786-0, 19.8 µM (inactive); with IGROV-1, 20.1 µM (inactive); with NCI-H460, 16.1 µM (inactive); in the test on SN12C, 18.1 µM (inactive).
As for `O=C(O)C12CCC(CC1=O)C2` (stereo unspecified), the GI50 is > 100 µM (inactive) in the test with TK-10; > 100 µM (inactive) in the test on KM12; > 100 µM (inactive) in the test with K562; > 100 µM (inactive) in the test on HOP-62; greater than 100 µM in the test with HCT-15; > 100 µM (inactive) in the test with OVCAR-5. The GI50 in the test with CAKI-1, in the test on SK-MEL-5, in the test with ACHN, with MDA-MB-435, with RPMI-8226 and in the test with 786-0 was > 100 µM (inactive) throughout. The GI50 with IGROV-1, in the test with NCI-H460 and with SN12C was > 100 µM (inactive) each time.
`COc1ccc(CNc2cnc3cc(N)ccc3n2)cc1OC`: the GI50 with TK-10 was > 100 µM (inactive); in the test on KM12, > 100 µM (inactive); with K562, > 100 µM (inactive); in the test on HOP-62, > 100 µM (inactive); in the test with HCT-15, greater than 100 µM; in the test with OVCAR-5, > 10 µM (inactive). The GI50 in the test with CAKI-1, with SK-MEL-5, in the test on ACHN, in the test on HCT-116, in the test on RPMI-8226 and in the test on 786-0 was > 100 µM (inactive) throughout. Besides, the GI50 in the test with NCI-H460 and with SN12C was > 100 µM (inactive) each time.
Take `COC(=O)c1ccccc1/C=C1\Cc2cc(C)cc(C)c2C1=O`: the GI50 was > 100 µM (inactive) in the test on TK-10; > 100 µM (inactive) in the test with KM12; > 100 µM (inactive) with K562; 37.2 µM (inactive) in the test on HOP-62; greater than 100 µM in the test with HCT-15; > 100 µM (inactive) in the test with A498. In addition, the GI50 in the test with OVCAR-5, with SK-MEL-5, in the test with MDA-N, with ACHN, with HCT-116 and in the test with RPMI-8226 was > 100 µM (inactive) throughout. For the same compound, the GI50 with 786-0 was 57.4 µM (inactive); with IGROV-1, > 100 µM (inactive); with NCI-H460, > 100 µM (inactive); in the test with SN12C, > 100 µM (inactive).
As to `OCCCSc1ccccc1SCCCO`, the GI50 was > 100 µM (inactive) in the test with TK-10; > 100 µM (inactive) with KM12; > 100 µM (inactive) in the test with K562; > 100 µM (inactive) with HOP-62; greater than 100 µM with HCT-15; > 100 µM (inactive) in the test on OVCAR-5. In addition, the GI50 in the test with SK-MEL-5, in the test on MDA-N, in the test with HCT-116, with MDA-MB-435, with 786-0 and in the test with IGROV-1 was > 100 µM (inactive) throughout. The GI50 in the test on NCI-H460 and in the test with SN12C was > 100 µM (inactive) each time.
